Measurements: patent US20200085791A1, “[(PHENYLSULFONYL)OCTAHYDRO-EPIMINOISOINDOL-YL](1H-1,2,3-TRIAZOL-5-YL)METHANONES” (Bayer Pharma Aktiengesellschaft, priority 2016, published 2020)

Target: T1, recombinant human AKR1C3 (Aldo-keto reductase family 1 member C3) (Homo sapiens, UniProt P42330)
T1 construct: GST (cleaved yes); made in house; host or cells: E. coli
T1 sequence (P42330 1-323): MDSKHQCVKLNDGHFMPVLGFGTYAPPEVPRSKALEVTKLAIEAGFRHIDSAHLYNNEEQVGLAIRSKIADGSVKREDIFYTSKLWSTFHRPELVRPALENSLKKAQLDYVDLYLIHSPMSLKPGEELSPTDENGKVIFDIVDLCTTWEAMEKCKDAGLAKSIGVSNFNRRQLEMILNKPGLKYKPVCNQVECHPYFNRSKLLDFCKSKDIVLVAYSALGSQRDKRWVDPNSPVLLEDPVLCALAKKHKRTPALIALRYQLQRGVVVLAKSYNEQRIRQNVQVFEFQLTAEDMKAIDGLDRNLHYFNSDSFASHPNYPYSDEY
Assay: In Vitro Assay 1: AKR1C3-inhibitory activity (Coumberone to Coumberol fluorescence assay)
Type: biochemical
Settings: recombinant enzyme, Coumberone 0.3 μM, NADPH 10 μM, 15 min pre-incubation, 4-parameter fit; average or median values
Experimental: In Vitro Assay 1: AKR1C3-Inhibitory Activity
The AKR1C3-inhibitory activity of the substances of the present invention was measured in the AKR1C3 assay described in the paragraphs below.
Essentially, the enzyme activity is measured by quantification of the Coumberol from Coumberone (Halim, M., Yee, D. J., and Sames, D., J. AM. CHEM. SOC. 130, 14123-14128 (2008) and Yee, D. J., Balsanek, V., Bauman, D. R., Penning, T. M., and Sames, D., Proc. Natl. Acad. Sci. USA 103, 13304-13309 (2006)). In this test, the increase of the highly fluorescent Coumberol by NADPH- (nicotinamide adenine dinucleotide phosphate)-dependent reduction of the non-fluorescent Coumberone by AKR1C3 can be determined.
The enzyme used was recombinant human AKR1C3 (Aldo-keto reductase family 1 member C3) (GenBank Accession No. NM_003739). This was expressed in E. coli as GST (glutathione S transferase) fusion protein and purified by glutathione Sepharose affinity chromatography. The GST was removed by digestion with thrombin and subsequent size exclusion chromatography (Dufort, I., Rheault, P., Huang, X F., Soucy, P., and Luu-The, V., Endocrinology 140, 568-574 (1999)).
For the assay, 50 nl of a 100-fold concentrated solution of the test substance in DMSO were pipetted into a black low-volume 384-well microtiter plate (Greiner Bio-One, Frickenhausen, Germany), 2.5 μl of a solution of AKR1C3 in assay buffer [50 mM potassium phosphate buffer pH 7, 1 mM DTT, 0.0022% (w/v) Pluronic F-127, 0.01% BSA (w/v) and protease inhibitor cocktail (Complete, EDTA-free Protease Inhibitor Cocktail from Roche)] were added and the mixture was incubated for 15 min to allow pre-binding of the substances to the enzyme prior to the enzyme reaction. The enzyme reaction was then started by addition of 2.5 μl of a solution of NADPH (20 μM→final concentration in 5 μl of assay volume is 10 μM) and Coumberone (0.6 μM→final concentration in 5 μl of assay volume is 0.3 μM) in assay buffer, and the resulting mixture was incubated at […] for the reaction time of typically 90 min. The concentration of the AKR1C3 and the reaction time was adapted to the respective activity of the enzyme preparation and adjusted such that the assay was carried out in the linear range.
Typical AKR1C3 concentrations were in the region of 1 nM. The reaction was stopped by addition of 2.5 μl of a stop solution consisting of the inhibitor EM-1404 [F. Labrie et al. U.S. Pat. No. 6,541,463, 2003] (3 μM→final concentration in 7.5 μl of assay volume is 1 μM). The fluorescence of the Coumberole was then measured at 520 nm (excitation at 380 nm) using a suitable measuring instrument (Pherastar from BMG Labtechnologies). The intensity of the fluorescence was used as a measure of the amount of Coumberole formed and thus of the enzyme activity of AKR1C3. The data were normalized (enzyme reaction without inhibitor—0% inhibition; all other assay components, but no enzyme=100% inhibition).

Row | SMILES | IC50 [µM]
1 | O=C(c1cnn[nH]1)N1C[C@@H]2[C@H](C1)[C@@H]1CC[C@H]2N1S(=O)(=O)c1ccc(F)c(F)c1 [Example 25, {(3aR,4S,7R,7aS)-8-[(3,4-difluorophenyl)sulfonyl]octahydro-2H-4,7-epiminoisoindol-2-yl}(1H-1,2,3-triazol-5-yl)methanone] | 0.132
2 | O=C(c1cnn[nH]1)N1C[C@@H]2[C@H](C1)[C@H]1CC[C@@H]2N1S(=O)(=O)c1ccc2nsnc2c1 [Example 48, [(3aR,4R,7S,7aS)-8-(2,1,3-benzothiadiazol-5-ylsulfonyl)octahydro-2H-4,7-epiminoisoindol-2-yl](1H-1,2,3-triazol-5-yl)methanone] | 0.213
3 | O=C(c1cnn[nH]1)N1C[C@@H]2[C@H](C1)[C@H]1CC[C@@H]2N1S(=O)(=O)c1cc(F)c(F)cc1F [Example 52, 1H-1,2,3-triazol-5-yl{(3aR,4R,7S,7aS)-8-[(2,4,5-trifluorophenyl)sulfonyl]octahydro-2H-4,7-epiminoisoindol-2-yl}methanone] | 0.021
4 | O=C(c1cnn[nH]1)N1C[C@@H]2[C@H](C1)[C@H]1CC[C@@H]2N1S(=O)(=O)c1cccc2nsnc12 [Example 45, [(3aR,4R,7S,7aS)-8-(2,1,3-benzothiadiazol-4-ylsulfonyl)octahydro-2H-4,7-epiminoisoindol-2-yl](1H-1,2,3-triazol-5-yl)methanone] | 0.109
5 | N#Cc1cc(S(=O)(=O)N2[C@@H]3CC[C@H]2[C@@H]2CN(C(=O)c4cnn[nH]4)C[C@@H]23)ccc1F [Example 50, 2-fluoro-5-{[(3aR,4R,7S,7aS)-2-(1H-1,2,3-triazol-5-ylcarbonyl)octahydro-1H-4,7-epiminoisoindol-8-yl]sulfonyl}benzonitrile] | 0.999
6 | COc1ccc(C#N)cc1S(=O)(=O)N1[C@@H]2CC[C@H]1[C@@H]1CN(C(=O)c3cnn[nH]3)C[C@@H]12 [Example 66, 4-methoxy-3-{[(3aR,4R,7S,7aS)-2-(1H-1,2,3-triazol-5-ylcarbonyl)octahydro-1H-4,7-epiminoisoindol-8-yl]sulfonyl}benzonitrile] | 0.625
7 | Cc1cc(C)cc(S(=O)(=O)N2[C@@H]3CC[C@H]2[C@H]2CN(C(=O)c4cnn[nH]4)C[C@H]23)c1 [Example 24, {(3aR,4S,7R,7aS)-8-[(3,5-dimethylphenyl)sulfonyl]octahydro-2H-4,7-epiminoisoindol-2-yl}(1H-1,2,3-triazol-5-yl)methanone] | 0.066
8 | O=C(c1cnn[nH]1)N1C[C@@H]2[C@H](C1)[C@H]1CC[C@@H]2N1S(=O)(=O)c1cc(Cl)ccc1F [Example 51, {(3aR,4R,7S,7aS)-8-[(5-chloro-2-fluorophenyl)sulfonyl]octahydro-2H-4,7-epiminoisoindol-2-yl}(1H-1,2,3-triazol-5-yl)methanone] | 0.003
9 | Cc1ccc(Br)cc1S(=O)(=O)N1[C@@H]2CC[C@H]1[C@@H]1CN(C(=O)c3cnn[nH]3)C[C@@H]12 [Example 55, {(3aR,4R,7S,7aS)-8-[(5-bromo-2-methylphenyl)sulfonyl]octahydro-2H-4,7-epiminoisoindol-2-yl}(1H-1,2,3-triazol-5-yl)methanone] | 0.004
10 | COC(=O)c1cccc(S(=O)(=O)N2[C@@H]3CC[C@H]2[C@@H]2CN(C(=O)c4cnn[nH]4)C[C@@H]23)c1 [Example 56, methyl 3-{[(3aR,4R,7S,7aS)-2-(1H-1,2,3-triazol-5-ylcarbonyl)octahydro-1H-4,7-epiminoisoindol-8-yl]sulfonyl}benzoate] | 0.798

Other lines, results leading:

Row | IC50 [µM] | SMILES
11 | 0.019 | O=C(c1c[nH]nn1)N1C[C@@H]2[C@H](C1)[C@@H]1CC[C@H]2N1S(=O)(=O)c1cc(F)ccc1F [Example 18, {(3aR,4S,7R,7aS)-8-[(2,5-difluorophenyl)sulfonyl]octahydro-2H-4,7-epiminoisoindol-2-yl}(1H-1,2,3-triazol-4-yl)methanone]
12 | 0.084 | N#Cc1c(Cl)cccc1S(=O)(=O)N1[C@@H]2CC[C@H]1[C@@H]1CN(C(=O)c3cnn[nH]3)C[C@@H]12 [Example 61, 2-chloro-6-{[(3aR,4R,7S,7aS)-2-(1H-1,2,3-triazol-5-ylcarbonyl)octahydro-1H-4,7-epiminoisoindol-8-yl]sulfonyl}benzonitrile]
13 | 0.082 | O=C(c1cnn[nH]1)N1C[C@@H]2[C@H](C1)[C@H]1CC[C@@H]2N1S(=O)(=O)c1ccc(Cl)c(Cl)c1 [Example 37, {(3aR,4R,7S,7aS)-8-[(3,4-dichlorophenyl)sulfonyl]octahydro-2H-4,7-epiminoisoindol-2-yl}(1H-1,2,3-triazol-5-yl)methanone]
14 | 0.024 | O=C(c1c[nH]nn1)N1C[C@@H]2[C@H](C1)[C@@H]1CC[C@H]2N1S(=O)(=O)c1ccccc1F [Example 14, {(3aR,4S,7R,7aS)-8-[(2-fluorophenyl)sulfonyl]octahydro-2H-4,7-epiminoisoindol-2-yl}(1H-1,2,3-triazol-4-yl)methanone]
15 | 0.031 | O=C(c1c[nH]nn1)N1C[C@@H]2[C@H](C1)[C@@H]1CC[C@H]2N1S(=O)(=O)c1cccc(Cl)c1F [Example 6, {(3aR,4S,7R,7aS)-8-[(3-chloro-2-fluorophenyl)sulfonyl]octahydro-2H-4,7-epiminoisoindol-2-yl}(1H-1,2,3-triazol-4-yl)methanone]
16 | 0.085 | COc1ccc(Cl)cc1S(=O)(=O)N1[C@@H]2CC[C@H]1[C@@H]1CN(C(=O)c3cnn[nH]3)C[C@@H]12 [Example 47, {(3aR,4R,7S,7aS)-8-[(5-chloro-2-methoxyphenyl)sulfonyl]octahydro-2H-4,7-epiminoisoindol-2-yl}(1H-1,2,3-triazol-5-yl)methanone]
17 | 0.004 | O=C(c1c[nH]nn1)N1[C@@H]2CC[C@H]1[C@H]1CN(S(=O)(=O)c3ccccc3Cl)C[C@H]12 [Example 9, {(3aR,4S,7R,7aS)-2-[(2-chlorophenyl)sulfonyl]octahydro-1H-4,7-epiminoisoindol-8-yl}(1H-1,2,3-triazol-4-yl)methanone]
18 | 0.102 | O=C(c1c[nH]nn1)N1C[C@@H]2[C@H](C1)[C@@H]1CC[C@H]2N1S(=O)(=O)c1ccc(F)cc1F [Example 13, {(3aR,4S,7R,7aS)-8-[(2,4-difluorophenyl)sulfonyl]octahydro-2H-4,7-epiminoisoindol-2-yl}(1H-1,2,3-triazol-4-yl)methanone]
19 | 0.002 | O=C(c1cnn[nH]1)N1C[C@@H]2[C@H](C1)[C@@H]1CC[C@H]2N1S(=O)(=O)c1ccccc1C(F)(F)F [Example 1, 1H-1,2,3-triazol-5-yl[(3aR,4S,7R,7aS)-8-{[2-(trifluoromethyl)phenyl]sulfonyl}octahydro-2H-4,7-epiminoisoindol-2-yl]methanone]
20 | 0.174 | O=C(c1cnn[nH]1)N1C[C@@H]2[C@H](C1)[C@H]1CC[C@@H]2N1S(=O)(=O)c1ccc(Cl)cc1 [Example 31, {(3aR,4R,7S,7aS)-8-[(4-chorophenyl)sulfonyl]octahydro-2H-4,7-epiminoisoindol-2-yl}(1H-1,2,3-triazol-5-yl)methanone]
21 | 0.002 | O=C(c1cnn[nH]1)N1C[C@@H]2[C@H](C1)[C@H]1CC[C@@H]2N1S(=O)(=O)c1cc(F)ccc1Cl [Example 63, {(3aR,4R,7S,7aS)-8-[(2-chloro-5-fluorophenyl)sulfonyl]octahydro-2H-4,7-epiminoisoindol-2-yl}(1H-1,2,3-triazol-5-yl)methanone]
22 | 0.021 | O=C(c1cnn[nH]1)N1[C@@H]2CC[C@H]1[C@H]1CN(S(=O)(=O)c3cc(Cl)cc(Cl)c3)C[C@H]12 [Example 28, {(3aR,4S,7R,7aS)-2-[(3,5-dichlorophenyl)sulfonyl]octahydro-1H-4,7-epiminoisoindol-8-yl}(1H-1,2,3-triazol-5-yl)methanone]
